The text below walks through data of patent US10239871B2, “Compounds and methods for regulating integrins” (ADHAERE PHARMACEUTICALS, INC., priority 2012, dated 2019).

For one data set, the system named is T-cell proliferation. In words: Mixed lymphocyte reaction (MLR). It is filed as cell-based.
The subject of data set [1] is neutrophils, hepatocytes, hERG. The data set is described as follows: Pilot in vitro ADME assay (neutrophils, hepatocytes, hERG). As to conditions: at up to 100 µM.

Turning to `O=C(O)c1ccc(-c2ccc(/C=C3\SC(=S)N(Cc4ccccc4)C3=O)o2)cc1` [LA1], in the data set with T-cell proliferation, the T-cell proliferation result was “dose-dependently reduces T-cell proliferation”. The “adverse findings in pilot in vitro ADME assay” value in data set [1] is reported as “no adverse findings”.
